Results on 36 molecules are retold here after ChEMBL document CHEMBL5126607, “Discovery and In Vivo Evaluation of ACT-660602: A Potent and Selective Antagonist of the Chemokine Receptor CXCR3 for Autoimmune Diseases” (J Med Chem, 2022).

Data set [1] addresses T1, C-X-C chemokine receptor type 3 (Homo sapiens, UniProt P49682).
T1 sequence (P49682 whole entry): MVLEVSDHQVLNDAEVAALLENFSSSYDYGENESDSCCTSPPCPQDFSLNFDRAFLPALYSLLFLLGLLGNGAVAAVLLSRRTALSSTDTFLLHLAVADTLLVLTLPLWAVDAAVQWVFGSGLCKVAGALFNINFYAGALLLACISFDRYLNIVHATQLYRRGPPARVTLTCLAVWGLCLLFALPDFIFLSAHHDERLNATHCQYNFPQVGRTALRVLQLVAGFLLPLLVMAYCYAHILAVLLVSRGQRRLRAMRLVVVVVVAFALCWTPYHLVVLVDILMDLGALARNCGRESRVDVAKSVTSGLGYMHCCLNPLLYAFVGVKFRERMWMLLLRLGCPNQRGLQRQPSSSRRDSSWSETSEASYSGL
Description: Antagonist activity at recombinant human CXCR3 expressed in human CHO-K1 cells co-expressing Galpha15 incubated for 10 mins by Fluo-4AM dye based FLIPR assay

The target in data set [2] is Voltage-gated inwardly rectifying potassium channel KCNH2 (Homo sapiens, UniProt Q12809). The data set can be described thus: Inhibition of hERG expressed in CHO cells by Q patch-clamp method.
Data set [3] has as its target T1, C-X-C chemokine receptor type 3. The source holds these as a separate data set.
Description: Antagonist activity at recombinant human CXCR3 in human U2SO cells assessed as reduction in CXCL10-induced beta-arrestin recruitment by TANGO assay
Another data set in a line: in vitro. Particulars: human.
The target in data set [4] is T1, C-X-C chemokine receptor type 3. The source holds these as a separate data set.
Description: Inhibition of CXCR3 receptor internalization in human venous whole blood incubated for 30 mins by flow cytometer analysis
The target of the next data set is hERG (Homo sapiens, UniProt Q12809). The data set can be described thus: Inhibition of hERG expressed in CHO cells 10 uM at by Q patch-clamp method relative to control.

A value given as a limit tells only on which side of the number the result lay.

hERG, sequence (Q12809 whole entry): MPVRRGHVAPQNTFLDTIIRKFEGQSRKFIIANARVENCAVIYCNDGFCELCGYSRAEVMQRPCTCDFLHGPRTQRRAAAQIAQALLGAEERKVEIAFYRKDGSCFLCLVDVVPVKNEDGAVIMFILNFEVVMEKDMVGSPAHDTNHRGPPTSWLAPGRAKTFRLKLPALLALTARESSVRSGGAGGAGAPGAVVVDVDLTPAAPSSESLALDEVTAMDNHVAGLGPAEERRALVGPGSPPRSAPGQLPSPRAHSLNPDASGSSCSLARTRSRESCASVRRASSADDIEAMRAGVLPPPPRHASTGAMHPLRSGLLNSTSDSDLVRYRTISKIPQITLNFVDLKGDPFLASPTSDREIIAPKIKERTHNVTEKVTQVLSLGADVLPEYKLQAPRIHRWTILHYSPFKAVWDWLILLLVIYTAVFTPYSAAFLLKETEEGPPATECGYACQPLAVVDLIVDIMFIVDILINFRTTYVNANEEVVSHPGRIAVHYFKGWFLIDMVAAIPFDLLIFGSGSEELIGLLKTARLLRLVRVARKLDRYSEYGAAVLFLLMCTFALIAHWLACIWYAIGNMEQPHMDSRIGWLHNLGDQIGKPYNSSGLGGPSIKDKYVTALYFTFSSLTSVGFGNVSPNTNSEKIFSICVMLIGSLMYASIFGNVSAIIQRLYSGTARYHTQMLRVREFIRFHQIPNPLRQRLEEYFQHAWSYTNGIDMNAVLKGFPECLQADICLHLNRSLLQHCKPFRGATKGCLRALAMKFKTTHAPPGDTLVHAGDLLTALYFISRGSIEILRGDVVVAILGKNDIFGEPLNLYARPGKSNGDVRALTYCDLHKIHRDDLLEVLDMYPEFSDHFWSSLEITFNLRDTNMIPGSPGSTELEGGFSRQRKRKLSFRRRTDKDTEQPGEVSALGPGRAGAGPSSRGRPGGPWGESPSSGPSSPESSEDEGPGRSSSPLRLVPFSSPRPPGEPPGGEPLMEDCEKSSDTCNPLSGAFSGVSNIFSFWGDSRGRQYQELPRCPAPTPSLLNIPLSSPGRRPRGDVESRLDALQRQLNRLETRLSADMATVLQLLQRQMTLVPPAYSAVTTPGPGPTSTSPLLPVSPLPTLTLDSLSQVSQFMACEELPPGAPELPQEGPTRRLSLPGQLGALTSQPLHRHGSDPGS
Voltage-gated inwardly rectifying potassium channel KCNH2, sequence (Q12809 whole entry): as above

Broadly, the IC50 is the concentration that inhibits the measured activity by half. A low value points to greater potency in that assay. Take `C[C@H]1CN(c2scnc2-c2nc3ccccc3[nH]2)CCN1C(=O)Cn1cnc2cccnc21`: the IC50 in data set [1] amounted to 67 nM; in data set [2], 630 nM; in data set [3], 8030 nM.
The term microsomal CLint denotes the rate of metabolic loss divided by the concentration. In turn, `CCc1nc(-c2nc3ccccc3[nH]2)c(N2CCN(C(=O)Cn3cnc4cccnc43)[C@H](C)C2)s1` yielded a microsomal CLint at 1 µM in the data set “in vitro” (liver microsomes) of 88 µL/min/mg.
Take `O=C(Cn1cnc2cccnc21)N1CCN(c2ncsc2-c2nc3ccccc3[nH]2)CC1`: half-maximal inhibition in data set [1] (IC50) required 4200 nM.
As for `CC[C@@H]1CN(c2scnc2-c2nc3ccccc3[nH]2)CCN1C(=O)Cn1cnc2cccnc21`, the IC50 came out at 3.9 nM in data set [1], 750 nM in data set [2] and 604 nM in data set [3].
For the molecule `C[C@@H]1CN(c2sc(C3CC3)nc2-c2nc3ccccc3[nH]2)CCN1C(=O)Cn1cnc2cccnc21`, the IC50 in data set [4] was 994 nM; in data set [1] it was 9.7 nM; in data set [2] it was 380 nM; in data set [3] it was 745 nM.
On to `O=C(Cn1cnc2cccnc21)N1CCN(c2scnc2-c2nc3ccccc3[nH]2)CC1`, for which the values for the IC50 in data set [4] and in data set [1] were 1440 nM and 30 nM, respectively.
Take `C[C@@H]1CN(c2sc(C3COC3)nc2-c2nc3ccccc3[nH]2)CCN1C(=O)Cn1cnc2cccnc21`: the IC50 in data set [4] stood at 1150 nM; in data set [1], 53 nM; in data set [2] it was 4400 nM; in data set [3], 6220 nM. The microsomal CLint at 1 µM in “in vitro” (microsomes) came to 38 µL/min/mg.
With `C[C@@H]1CN(c2sc(CO)nc2-c2nc3ccccc3[nH]2)CCN1C(=O)Cn1cnc2cccnc21`, the IC50 in data set [4] is 3380 nM; in data set [1], 171 nM; in data set [2], 19000 nM; in data set [3], above 10000 nM.
For `Cc1nc(-c2nc3ccccc3[nH]2)c(N2CCN(C(=O)Cn3cnc4cccnc43)[C@H](C)C2)s1`, the IC50 in data set [4] was found to be 1060 nM; in data set [1] it was 9 nM; in data set [2], 2600 nM; in data set [3], 1050 nM. The same molecule came in with a microsomal CLint at 1 µM in the data set “in vitro” (microsomes) of 23 µL/min/mg.
On to `C[C@@H]1CN(c2sc(Br)nc2-c2nc3ccccc3[nH]2)CCN1C(=O)Cn1cnc2cccnc21`, for which the IC50 is 526 nM in data set [4], 2.8 nM in data set [1], 340 nM in data set [2] and 126 nM in data set [3].
Turning to `CCOc1ncc(-c2nc(C(F)(F)F)sc2N2CCN(C(=O)Cn3ccc4cccnc43)[C@H](C)C2)cn1`, the IC50 in data set [2] stood at 4200 nM.
In the case of `CCOc1ncc(-c2nc(C(F)(F)F)sc2N2CCN(C(=O)CN3C(=O)Cc4ccccc43)[C@H](C)C2)cn1`, in data set [2], half-maximal inhibition (IC50) was put at 3000 nM.
As usually defined, the inhibition is the drop in the measured response relative to a control, in per cent. Lower therefore signals a response near the control. Turning to `CCCc1ncc(-c2nc(C(F)(F)F)sc2N2CCN(C(=O)Cn3cnc4cccnc43)[C@H](C)C2)cn1`, 10 µM produced 57% inhibition against hERG. In data set [2], half-maximal inhibition (IC50) required 5900 nM.
Molecule `CCOc1ncc(-c2nc(C(F)(F)F)sc2N2CCN(C(=O)Cn3ccc4cnccc43)[C@H](C)C2)cn1` came in with an IC50 in data set [2] of 570 nM.
The molecule `COc1ncc(-c2nc(C(F)(F)F)sc2N2CCN(C(=O)Cn3nc(C)nc3C)[C@H](C)C2)cn1` registered an IC50 in data set [2] above 20000 nM.
Take `COc1ccc(-c2nc(C(F)(F)F)sc2N2CCN(C(=O)Cn3nc(C)nc3C)[C@H](C)C2)cn1`: in data set [2], the concentration for half-maximal inhibition (IC50) is above 20000 nM.
The same measure, in the same setting: under `Cc1nc(C)n(CC(=O)N2CCN(c3sc(C(F)(F)F)nc3-c3cnc(C(C)(C)C)nc3)C[C@H]2C)n1` stands above 20000 nM.
For the molecule `O=C(Cn1cnc2cccnc21)N1CCN(c2ccccc2-c2nc3ccccc3[nH]2)CC1`, the IC50 in data set [4] was found to be 230 nM; in data set [1], 4.3 nM.
In data set [2], `CCc1ncc(-c2nc(C(F)(F)F)sc2N2CCN(C(=O)Cn3nc(C)nc3C)[C@H](C)C2)cn1` displayed an IC50 above 20000 nM.
`O=C(Nc1cccnc1N1CCN(C(=O)Cn2cnc3cccnc32)CC1)c1cccc(Cl)c1`: 4.2 nM corresponded to half-maximal inhibition in data set [1] (IC50).
`CCOc1ncc(-c2nc(C(F)(F)F)sc2N2CCN(C(=O)Cn3cnc4ccccc43)[C@H](C)C2)cn1` registered an IC50 in data set [2] of 4700 nM. That is a single-digit micromolar value.
Molecule `O=C(Nc1ccccc1N1CCN(C(=O)Cn2cnc3cccnc32)CC1)c1cccc(Cl)c1` gave an IC50 in data set [1] of 1.6 nM.
In the case of `CCOc1ncc(-c2nc(C(F)(F)F)sc2N2CCN(C(=O)Cn3ccc(C(F)(F)F)n3)[C@H](C)C2)cn1`, the IC50 in data set [4] worked out at 90 nM; in data set [1], 3.8 nM; in data set [2] it was 5100 nM; in data set [3], 93 nM. The microsomal CLint at 1 µM in the data set “in vitro” (microsomes) turned out to be 20 µL/min/mg.
In the case of `CCOc1ncc(-c2nc(C(F)(F)F)sc2N2CCN(C(=O)Cn3nccc3C)[C@H](C)C2)cn1`, the IC50 was found to be 289 nM in data set [4], 2 nM in data set [1], 5600 nM in data set [2] and 162 nM in data set [3]. Also, the microsomal CLint at 1 µM in the data set “in vitro” (microsomes) came to 65 µL/min/mg.
As for `COCCOc1ncc(-c2nc(C(F)(F)F)sc2N2CCN(C(=O)Cn3cnc4cccnc43)[C@H](C)C2)cn1`, at hERG, testing at 10 µM gave an inhibition of 17%. Moreover, the IC50 in data set [2] was above 20000 nM.
On to `Cc1ncc(-c2nc(C(F)(F)F)sc2N2CCN(C(=O)Cn3nc(C)nc3C)[C@H](C)C2)cn1`, for which the IC50 in data set [2] is above 20000 nM.
With `CCOc1ncc(-c2nc(C(F)(F)F)sc2N2CCN(C(=O)Cn3cc(Cl)cn3)[C@H](C)C2)cn1`, in data set [2], 2800 nM corresponded to half-maximal inhibition (IC50).
On the same count and under the same terms, for `CCOc1ncc(-c2nc(C(F)(F)F)sc2N2CCN(C(=O)Cn3ncc4cccnc43)[C@H](C)C2)cn1` the value was 15000 nM.
As to `COc1ccc(-c2nc(C(F)(F)F)sc2N2CCN(C(=O)Cn3cnc4cccnc43)[C@H](C)C2)cc1`, at hERG, the inhibition at 10 µM was 53%. In addition, in data set [2], 8800 nM corresponded to half-maximal inhibition (IC50).
For the molecule `CCCc1ncc(-c2nc(C(F)(F)F)sc2N2CCN(C(=O)Cn3nc(C)nc3C)[C@H](C)C2)cn1`, the IC50 was 367 nM in data set [4], 4.4 nM in data set [1], above 20000 nM in data set [2] and 258 nM in data set [3]. Further, the microsomal CLint at 1 µM in the data set “in vitro” (microsomes) turned out to be 80 µL/min/mg.
Regarding `Cc1ncc(-c2nc(C(F)(F)F)sc2N2CCN(C(=O)Cn3cnc4cccnc43)[C@H](C)C2)cn1`, the inhibition at 10 µM against hERG came out at 40%. This molecule also registered an IC50 in data set [2] of 15000 nM.
Turning to `CCOc1ncc(-c2nc(C(F)(F)F)sc2N2CCN(C(=O)Cn3c(=O)oc4ccccc43)[C@H](C)C2)cn1`, the IC50 in data set [4] was determined as 536 nM; in data set [1], 3.3 nM; in data set [2] it was 2200 nM; in data set [3] it was 99 nM.
For `Cc1nc(C)n(CC(=O)N2CCN(c3sc(C(F)(F)F)nc3-c3ccc(C(F)(F)F)nc3)C[C@H]2C)n1`, the IC50 turned out to be 860 nM in data set [4], 4.2 nM in data set [1], 5200 nM in data set [2] and 608 nM in data set [3]. In addition, the microsomal CLint at 1 µM in the data set “in vitro” (microsomes) is below 10 µL/min/mg.
With `Cc1nc(C)n(CC(=O)N2CCN(c3sc(C(F)(F)F)nc3-c3cnc(C4CC4)nc3)C[C@H]2C)n1`, the half-inhibitory concentration (IC50) amounted to 674 nM in data set [4], 3.5 nM in data set [1], 13000 nM in data set [2] and 349 nM in data set [3]. Besides, the microsomal CLint at 1 µM in “in vitro” (microsomes) was below 10 µL/min/mg.
Turning to `Cc1nc(C)n(CC(=O)N2CCN(c3sc(C(F)(F)F)nc3-c3cnc(N4CCCC4)nc3)C[C@H]2C)n1`, the IC50 is 352 nM in data set [4], 3.5 nM in data set [1], above 20000 nM in data set [2] and 523 nM in data set [3].
As to `CCOc1ccc(-c2nc(C(F)(F)F)sc2N2CCN(C(=O)Cn3nc(C)nc3C)[C@H](C)C2)cn1`, the IC50 was 887 nM in data set [4], 8.8 nM in data set [1], above 20000 nM in data set [2] and 505 nM in data set [3]. The microsomal CLint at 1 µM in “in vitro” (microsomes) amounted to 66 µL/min/mg.
